Laboratory results reported in patent publication EP2960339A1, “Method and kit for the identification of glycosyl transferase substrates” (Technische Universität München, priority 2014, dated 2015).
Values joined by “and” are separate entries in the source; they are usually repeats but may differ in a detail not shown here. Equal values may be shown once. Read-outs that look alike come from different tables or passages of the source. Each block holds one compound with its values, some of them ahead of it.

How the values were obtained:
Format in all cases: biochemical
[1] = target: T1, VvGT14a (Vitis vinifera, UniProt F6H0R6); assay: Substrate screening, radiochemical activity assay with UDP-[14C]glucose; conditions: for relative specific activity: relative to conversion of geraniol (100 %), extractable radioactivity; for conversion of putative substrate (in words): substrate screening, Figure 3
T1 sequence (F6H0R6 entry or part of it): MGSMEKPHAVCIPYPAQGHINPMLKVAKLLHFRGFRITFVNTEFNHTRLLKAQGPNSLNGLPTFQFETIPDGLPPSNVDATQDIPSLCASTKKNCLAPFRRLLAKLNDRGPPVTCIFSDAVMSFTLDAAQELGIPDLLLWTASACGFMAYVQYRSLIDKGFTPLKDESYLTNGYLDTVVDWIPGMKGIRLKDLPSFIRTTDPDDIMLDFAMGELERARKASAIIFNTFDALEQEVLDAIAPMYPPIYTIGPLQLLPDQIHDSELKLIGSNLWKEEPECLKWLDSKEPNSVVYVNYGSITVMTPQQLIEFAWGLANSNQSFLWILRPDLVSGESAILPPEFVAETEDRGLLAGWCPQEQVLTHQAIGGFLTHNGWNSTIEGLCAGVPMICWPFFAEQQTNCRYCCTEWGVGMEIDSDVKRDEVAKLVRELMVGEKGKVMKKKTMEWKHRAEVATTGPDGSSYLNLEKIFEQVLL
Procedure: (§1) In the initial screening, each reaction mixture (200 µL in total) contained Tris-HCl buffer (100 mM, pH 8, 10 mM 2-mercaptoethanol), 37 pmol UDP-[^14C]glucose (0.01 µCi, Biotrend, Köln, Germany), substrate (50 µL of a 1 mg/mL stock solution) and purified protein (0.5-0.8 µg/µL). The reaction mixture was incubated at 30 °C for 18.5 hours. The assays were stopped by adding 1 µL 24% trichloroacetic acid and extracted with 500 µL water-saturated 1-butanol. The organic phase was mixed with 2 mL Pro Flow P+ cocktail (Meridian Biotechnologies Ltd., Epsom, UK) and radioactivity was determined by liquid scintillation counting (LSC, Tri-Carb 2800TR, Perkin Elmer, Waltham MA, USA). Additionally, negative controls without substrate were performed.
(§2) After determining the optimal conditions for the best substrate of each gene, the substrate screening was repeated under these conditions.
(§3) The alleles of VvGT14a-c, 15a-c and 16 were isolated from V. vinifera cultivars and cloned in the expression vector pGEX-4T-1. The recombinant proteins were expressed with an N-terminal GST-tag, affinity purified and verified by SDS-PAGE and Western Blot using GST-specific antibody. Enzyme activity studies were performed with UDP-[^14C]glucose and various putative substrates (terpenols, flavonoids and different mono-alcohols) that are known to be glycosidically bound and present in grapes (Gunata et al., 1988).

[2] = target: T2, VvGT16 (Vitis vinifera, UniProt F6HTJ4); assay: as above; conditions: for conversion of putative substrate (in words): substrate screening, Figure 3; for relative specific activity: relative to conversion of benzyl alcohol (100 %), extractable radioactivity; for efficiency of transformation of R- and S-citronellol (in words): radiochemical assays, Figure 12
T2 sequence (F6HTJ4 entry or part of it): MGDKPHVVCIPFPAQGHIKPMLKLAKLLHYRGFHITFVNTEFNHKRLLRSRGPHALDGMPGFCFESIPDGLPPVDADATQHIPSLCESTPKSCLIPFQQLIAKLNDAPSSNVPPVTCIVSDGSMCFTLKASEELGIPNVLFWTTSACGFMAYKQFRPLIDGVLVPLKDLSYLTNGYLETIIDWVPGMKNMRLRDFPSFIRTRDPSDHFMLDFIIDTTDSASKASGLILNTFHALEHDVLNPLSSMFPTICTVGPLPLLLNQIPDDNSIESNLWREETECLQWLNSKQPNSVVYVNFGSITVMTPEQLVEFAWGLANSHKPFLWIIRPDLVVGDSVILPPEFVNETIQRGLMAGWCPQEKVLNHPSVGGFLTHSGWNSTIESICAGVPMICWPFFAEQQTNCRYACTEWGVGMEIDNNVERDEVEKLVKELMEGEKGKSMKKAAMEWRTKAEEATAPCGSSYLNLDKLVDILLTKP
Procedure: as §1, §2, §3

[3] = target: T3, VvGT15c (Vitis vinifera, UniProt F6GUW0); assay: as above; conditions: for conversion of putative substrate (in words): substrate screening, Figure 3
T3 sequence (F6GUW0 entry or part of it): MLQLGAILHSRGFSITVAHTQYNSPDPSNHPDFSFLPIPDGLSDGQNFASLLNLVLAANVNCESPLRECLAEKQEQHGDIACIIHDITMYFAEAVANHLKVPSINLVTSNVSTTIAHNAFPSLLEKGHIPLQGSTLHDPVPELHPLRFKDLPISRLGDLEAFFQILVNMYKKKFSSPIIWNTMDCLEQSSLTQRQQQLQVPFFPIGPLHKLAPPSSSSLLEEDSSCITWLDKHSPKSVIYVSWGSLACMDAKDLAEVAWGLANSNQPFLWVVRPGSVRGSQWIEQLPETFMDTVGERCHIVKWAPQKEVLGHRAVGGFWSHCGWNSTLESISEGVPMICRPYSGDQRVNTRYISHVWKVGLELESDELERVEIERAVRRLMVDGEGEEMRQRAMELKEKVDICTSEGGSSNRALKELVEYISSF
Procedure: as §1, §2, §3

[4] = target: T4, VvGT15a (Vitis vinifera, UniProt F6GUW0); assay: as above; conditions: for conversion of putative substrate (in words): substrate screening, Figure 3
T4 sequence (F6GUW0 entry or part of it): as above
Procedure: as §1, §2, §3

[5] = target: T1, VvGT14a; conditions: for Km: monoterpenols at constant UDP-glucose […], UDP-glucose at fixed geraniol 100 µM, Tris-HCl pH 8.5, 30 °C; for kcat: pH 8.5
[6] = target: T3, VvGT15c
Procedure: (§4) The measurements were performed under the following conditions. […] The assay of VvGT15a-c was performed at 30 °C using a Tris-HCl buffer (100 mM, 10 mM 2-mercaptoethanol, pH 7.5) and 10 min (VvGT15c) or 30 min (VvGT15a-b) of incubation for the best substrates. The amount of the purified enzyme and the incubation time were adapted depending on the counting sensibility. The reaction was stopped by adding 1 µL 24% trichloroacetic acid and glucosides were extracted with 100 µL ethyl acetate. Radioactivity was determined by LSC.
(§5) The KM- and vmax-values were calculated from Lineweaver-Burk plots, Hanes-Woolf plots and non-linear fitting of the experimental data.

[7] = target: T4, VvGT15a
Procedure: as §4, §5

[8] = target: T5, VvGT15b (Vitis vinifera, UniProt F6GUW0)
T5 sequence (F6GUW0 entry or part of it): as above
Procedure: as §4, §5

[9] = target: T5, VvGT15b; assay: Substrate screening, radiochemical activity assay with UDP-[14C]glucose; conditions: for conversion of putative substrate (in words): substrate screening, Figure 3
Procedure: as §1, §2, §3

[10] = target: T2, VvGT16; assay: Kinetics (KM, kcat) with UDP-[14C]glucose, liquid scintillation counting; conditions: monoterpenes at constant UDP-glucose 512.5 µM; UDP-glucose at fixed geraniol 1.25 mM; Tris-HCl pH 8.5, 30 °C
[11] = target: T1, VvGT14a; assay: Activity based profiling using a physiologic aglycone library (radio-TLC, GC-MS); conditions: Figure 7
Procedure: For the preparation of aglycone extracts 50 g (fresh weight) grape skins or 4 g (fresh weight) inflorescences of Gewurztraminer Gm 11-18 were ground to a fine powder in liquid nitrogen. The isolation of glycosides was carried out as described above (see metabolite analysis). The methanolic fraction, which was obtained after SPE, was enzymatically hydrolysed. Therefore, the dried sample was dissolved in citric-acid buffer (0.1 M, pH 4), 50 mg AR 2000 (an enzyme preparation with glucosidase activity prepared from Aspergillus niger; DSM Food Specialties Beverage Ingredients, Delft, Netherlands) was added and incubated for 24 h with exclusion of light. The liberated aglycones were extracted by 20 mL methyl-tert-butyl ether and the organic phase was reduced to 1000µL using a gentle stream of nitrogen.
Aliquots of this aglycone extract were incubated with UDP-glucose and various VvGT-enzymes. Optimum conditions at 30 °C for 24 hours were applied. Each solution contained 100 µL purified enzyme, 100-150 µL Tris-HCl buffer (100 mM, pH7.5 or 8.5, 10 mM 2-mercaptoethanol), 37 pmol UDP-[^14C]glucose (0.01 µCi) and 50-100 µL extract (dissolved in methyl-tert-butylether). The buffer was mixed with the extract and the organic solvent was gently vaporized with nitrogen. The missing volume was adjusted with buffer before the enzyme was added. The reaction was stopped by adding 1 µL 24% trichloroacetic acid and extracted with 500 µL ethyl acetate. After termination of the reaction free aglycones, which were not converted by VvGT14 and VvGT15, were measured via SPME-(Solid Phase Microextraction)-GC-MS. These residual, free aglycones were completely removed by extraction with dichloromethane. Enzymatically formed glucosides were extracted by ethyl acetate, which was removed under nitrogen. The residue was dissolved in methanol and analyzed by LC-MS to detect the generated monoterpenol glucosides. Enzymatic hydrolysis of the glucosides was performed using AR 2000 and 2 mL citric-acid-buffer. After hydrolysis, a 100 µL aliquot was used to detect volatile aglycones via SPME-GC-MS. The remaining solution was extracted with methyl-tert-butyl ether and reduced under nitrogen to approximately 200 µL. One µL were measured by GC-MS via liquid injection.
Assays containing UDP-[^14C]glucose and aglycone libraries or substrates were performed as described above and subsequently extracted with 500 µL ethyl acetate. The organic solvent was vaporized and the pellet was re-suspended in 10 µL methanol and was applied on Silica Gel 60 F254 plates (Merck, Darmstadt, Germany). The dried plates were developed in a solvent system chloroform:acetic acid:water (50/45/5, v:v:v). Plates were dried and analyzed by digital autoradiograph (digital autoradiograph, EG&G Berthold, Wildbad, Germany).
An aglycone library of the two tissues was obtained by enzymatic hydrolysis of the glycosides followed by liquid-liquid extraction of the released alcohols and acids. […] The formed glycosides were separated by thin layer chromatography (TLC) and visualized by radiodetection whereas identification could be achieved by LC-MS and NMR analysis and, after hydrolysis, by GC-MS and LC-MS (Figure 6).

[12] = substrates at fixed UDP-glucose 833 µM, UDP-glucose at constant geraniol 1.25 mM, Tris-HCl pH 7.5, 30 °C
[13] = relative to conversion of geraniol (100 %), extractable radioactivity
[14] = citronellol enantiomers, Figure 12, highest level of extractable radioactivity = 100 %

Structure (SMILES): Oc1cc(O)c2cc(O)c(-c3ccc(O)c(O)c3)[o+]c2c1 [cyanidin]
- relative specific activity [1]: < 1%

Structure (SMILES): CC(C)=CCO [3-methyl-2-butenol]
- conversion of putative substrate (in words) [2]: transformed
- conversion of putative substrate (in words) [1]: catalytic activity

Structure (SMILES): C=CC(C)(O)CCC=C(C)CO (centres unmarked) [8-hydroxylinalool]
- conversion of putative substrate (in words) [1]: catalytic activity
- conversion of putative substrate (in words) [3]: able to use
- conversion of putative substrate (in words) [4]: able to use
- Km [5]: 48 ± 2 µM
- kcat [5]: 0.002 s⁻¹
- kcat ([6]; pH 7.5): 0.004 s⁻¹
- Km [6, 12]: 17 ± 0.2 µM
- Km [7, 12]: 32 ± 1.4 µM
- kcat [7, 12]: 0.003 s⁻¹
- Km [8, 12]: 33 ± 1.8 µM
- kcat [8, 12]: 0.003 s⁻¹

Structure (SMILES): CCCCCCO [hexanol]
- relative specific activity [2]: > 80%
- relative specific activity [1]: > 80%
- conversion of putative substrate (in words) [3]: glucosylated primarily
- conversion of putative substrate (in words) [4]: glucosylated primarily
- conversion of putative substrate (in words) [9]: glucosylated primarily

Structure (SMILES): CC/C=C\CCO [cis 3-hexenol]
- conversion of putative substrate (in words) [2]: transformed
- conversion of putative substrate (in words) [1]: catalytic activity

Structure (SMILES): CC(C)=CCC/C(C)=C/CO [Geraniol, (E)-3,7-dimethyl-2,6-octadien-1-ol]
- Km [10]: 355 ± 14 µM
- kcat [10]: 0.015 s⁻¹
- relative specific activity [2]: > 80%
- relative specific activity [1]: 100%
- conversion of putative substrate (in words) [1]: preferred
- relative specific activity [3, 13]: 100%
- conversion of putative substrate (in words) [3]: glucosylated primarily
- relative specific activity [4, 13]: 100%
- conversion of putative substrate (in words) [4]: glucosylated primarily
- relative specific activity [9, 13]: 100%
- conversion of putative substrate (in words) [9]: glucosylated primarily
- aglycone liberated by enzymatic hydrolysis of the glucosides formed from the grape skin aglycone library (in words) [11]: substantial amount
- Km [5]: 9 ± 1.2 µM
- kcat [5]: 0.02 s⁻¹
- Michaelis constant, fold greater than the KM values for nerol and S-citronellol [6]: about 2 fold
- kcat ([6]; pH 7.5): 0.17 s⁻¹
- Km [6, 12]: 43 µM
- Michaelis constant, fold greater than the KM values for nerol and S-citronellol [7]: about 2 fold
- kcat ([7]; pH 7.5): 0.12 s⁻¹
- Km [7, 12]: 63 µM
- Michaelis constant, fold greater than the KM values for nerol and S-citronellol [8]: about 2 fold
- kcat ([8]; pH 7.5): 0.1 s⁻¹ and 0.10 s⁻¹
- Km [8, 12]: 81 µM

Structure (SMILES): CC(C)=CCC[C@H](C)CCO [S-citronellol]
- efficiency of transformation of R- and S-citronellol (in words) [2]: same efficiency
- relative specific activity [4, 14]: 100%
- relative specific activity [9, 14]: 100%
- Km [6, 12]: 20 ± 1.6 µM
- kcat [6, 12]: 0.03 s⁻¹
- kcat ([7]; pH 7.5): 0.02 s⁻¹
- Km [7, 12]: 29 ± 3 µM
- Km [8, 12]: 55 ± 1.3 µM
- kcat [8, 12]: 0.03 s⁻¹

Structure (SMILES): N#CC(O)c1ccccc1 (centres unmarked) [mandelonitrile]
- conversion of putative substrate (in words) [1]: catalytic activity

Structure (SMILES): CC(C)=CCC/C(C)=C\CO [Nerol, (Z)-3,7-dimethyl-2,6-octadien-1-ol]
- Km [10]: 118 ± 4.7 µM
- kcat [10]: 0.009 s⁻¹
- conversion of putative substrate (in words) [2]: transformed
- relative specific activity [1]: > 80%
- conversion of putative substrate (in words) [3]: glucosylated primarily
- conversion of putative substrate (in words) [4]: glucosylated primarily
- conversion of putative substrate (in words) [9]: glucosylated primarily
- aglycone liberated by enzymatic hydrolysis of the glucosides formed from the grape skin aglycone library (in words) [11]: remarkable quantities
- Km [5]: 10 ± 0.7 µM
- kcat [5]: 0.02 s⁻¹
- kcat ([6]; pH 7.5): 0.06 s⁻¹
- Km [6, 12]: 28 ± 0.9 µM
- kcat ([7]; pH 7.5): 0.04 s⁻¹
- Km [7, 12]: 48 ± 1.7 µM
- Km [8, 12]: 40 ± 3.7 µM
- kcat [8, 12]: 0.03 s⁻¹

- efficiency of transformation of R- and S-citronellol (in words) [2]: same efficiency
Structure (SMILES): CC(C)=CCC[C@@H](C)CCO [R-citronellol, (R)-(+)-13-citronellol]

Structure (SMILES): C=C(C)CCO [3-methyl-3-butenol]
- conversion of putative substrate (in words) [1]: catalytic activity

Structure (SMILES): O=c1c(O)c(-c2ccc(O)c(O)c2)oc2cc(O)cc(O)c12 [quercetin]
- relative specific activity [1]: < 1%

Structure (SMILES): CCCCCCCCO [octanol]
- relative specific activity [1]: > 80%
- conversion of putative substrate (in words) [3]: glucosylated primarily
- conversion of putative substrate (in words) [4]: glucosylated primarily
- conversion of putative substrate (in words) [9]: glucosylated primarily

Structure (SMILES): C=CCc1ccc(O)c(OC)c1 [eugenol]
- conversion of putative substrate (in words) [1]: catalytic activity

Structure (SMILES): Oc1ccc(-c2[o+]c3cc(O)cc(O)c3cc2O)cc1 [pelargonodin]
- relative specific activity [1]: < 1%

Structure (SMILES): CC(C)=CCCC(C)=CCCC(C)=CCO [farnesol]
- conversion of putative substrate (in words) [1]: catalytic activity
- conversion of putative substrate (in words) [4]: low activity

Structure (SMILES): O=c1c(O)c(-c2ccc(O)cc2)oc2cc(O)cc(O)c12 [kaempferol]
- relative specific activity [1]: < 1%

Structure (SMILES): OCc1ccccc1 [benzyl alcohol]
- relative specific activity [2]: > 80% and 100%
- conversion of putative substrate (in words) [1]: catalytic activity
- aglycone liberated by enzymatic hydrolysis of the glucosides formed from the grape skin aglycone library (in words) [11]: remarkable quantities

Structure (SMILES): CCC/C=C/CO [trans 2-hexenol]
- conversion of putative substrate (in words) [2]: transformed
- conversion of putative substrate (in words) [1]: catalytic activity
- conversion of putative substrate (in words) [3]: able to use
- conversion of putative substrate (in words) [4]: able to use
